The term pKd denotes −log10 of the Kd, conventionally taken in molar units.

Structures are written as SMILES. pKd: −log10 of the molar value.

Chain of Ba/F3_KRAS^G12D cells (P01116 whole entry G12D): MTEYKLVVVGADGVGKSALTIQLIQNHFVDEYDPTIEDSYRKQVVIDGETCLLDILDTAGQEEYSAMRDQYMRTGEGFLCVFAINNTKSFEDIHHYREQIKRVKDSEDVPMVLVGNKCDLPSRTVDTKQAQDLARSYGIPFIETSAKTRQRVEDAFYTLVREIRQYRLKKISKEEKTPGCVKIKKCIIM

The target in one test is Ba/F3_KRAS^G12D cells (Homo sapiens, UniProt P01116, G12D, cells depend on it). As to the kind of experiment: Ba/F3 KRAS G12D cell proliferation assay (CellTiter-Glo). It is filed as cell-based. The settings on record: treated for 3 days, cell-titer Glo, cell growth inhibition, read-out: BaF3_KRAS^G12D IC50. As to the method:
Ba/F3_KRAS^G12D cells (KYinno, China) were generated by transducing Ba/F3 parental cells with the recombinant KRAS^G12D lentivirus and followed by 1 ug/mL of puromycin selection and IL3 depletion. […] Cells were seeded at a density of 5×10^3 per well into 96-well plate and incubated overnight. Serial diluted compounds were added to each well. Cells were treated with the compounds for 3 days, after which cell-titer Glo reagent (Promega #G7572) was used to assess cell proliferation. The luminescence signal was then collected on Tecan Spark plate reader. […] Cell growth inhibition of IC50 is calculated with the equation of Y=Bottom+(Top−Bottom)/(1+10^((Log IC50−X)*Hill Slope))
In general terms: In ATP-based viability assays light output follows the ATP content of the culture.
`CCc1cccc2cc(O)cc(-c3c(Cl)cc4c(N5CC6CCC(C5)N6)nc(OC[C@@]56CCCN5C[C@H](F)C6)nc4c3F)c12` (racemic) [Compound 77]: the GI50 is less than 500 nM.
On the same count and under the same terms, then `Oc1cc(-c2c(Cl)cc3c(N4CC5CCC(C4)N5)nc(OC[C@]45CCCN4C[C@@H](F)C5)nc3c2F)c2c(Cl)cccc2c1` (single isomer, unassigned) [Compound 101], with less than 500 nM.
As for `Oc1cc(-c2c(Cl)cc3c(N4CC5CCC(C4)N5)nc(OC[C@]45CCCN4C[C@@H](F)C5)nc3c2F)c2c(Cl)cccc2c1` (single isomer, unassigned) [Compound 102], the GI50 lay in the range of 500 to 5000 nM.
On the same count and under the same terms, then `Oc1cc(-c2c(Cl)cc3c(N4CC5CCC(C4)N5)nc(OC[C@@]45CCCN4C[C@H](F)C5)nc3c2F)c2c(Cl)cccc2c1` (single isomer, unassigned) [Compound 103], with less than 500 nM.
For the compound `Oc1cc(-c2c(Cl)cc3c(N4CC5CCC(C4)N5)nc(OC[C@@]45CCCN4C[C@H](F)C5)nc3c2F)c2c(Cl)cccc2c1` (single isomer, unassigned) [Compound 104], the GI50 was in the range of 500 to 5000 nM.
On the same count and under the same terms, then `Oc1cc(-c2c(Cl)cc3c(N4CC5CCC(C4)N5)nc(OC[C@]45CCCN4C[C@@H](F)C5)nc3c2F)c2ccccc2c1` (single isomer, unassigned) [Compound 105], with 500 to 5000 nM; and `CCc1c(F)ccc2cc(O)cc(-c3c(Cl)cc4c(N5CC6CCC(C5)N6)nc(OC[C@@]56CCCN5C[C@H](F)C6)nc4c3F)c12` (single isomer, unassigned) [Compound 147], with less than 500 nM; and `CCc1c(F)ccc2cc(O)cc(-c3c(Cl)cc4c(N5CC6CCC(C5)N6)nc(OC[C@@]56CCCN5C[C@H](F)C6)nc4c3F)c12` (single isomer, unassigned) [Compound 148], with less than 500 nM.
The same measure, in the same setting: then `C#Cc1c(F)ccc2cc(O)cc(-c3c(Cl)cc4c(N5CC6CCC(C5)N6)nc(OC[C@@]56CCCN5C[C@H](F)C6)nc4c3F)c12` (single isomer, unassigned) [Compound 155], with less than 500 nM; and `C#Cc1c(F)ccc2cc(O)cc(-c3c(F)cc4c(N5CC6CCC(C5)N6)nc(OC[C@@]56CCCN5C[C@H](F)C6)nc4c3F)c12` (single isomer, unassigned) [Compound 165], with less than 500 nM.
With `CN(C)CCCOc1nc(N2CC3CCC(C2)N3)c2cc(Cl)c(-c3c(N)cccc3F)c(F)c2n1` [Compound 9], the GI50 was greater than 5000 nM.
With `CN1CC(F)(F)CC1COc1nc(N2CC3CCC(C2)N3)c2cc(Cl)c(-c3cc(O)cc4ccccc34)c(F)c2n1` (stereo not shown) [Compound 34], the GI50 is 500 to 5000 nM.
`CN1CCO[C@@H](COc2nc(N3CC4CCC(C3)N4)c3cc(Cl)c(-c4cc(O)cc5ccccc45)c(F)c3n2)C1` [Compound 37]: the GI50 is 500 to 5000 nM.
On the same count and under the same terms, next, `CN1CCC(Oc2nc(N3CC4CCC(C3)N4)c3cc(Cl)c(-c4cc(O)cc5ccccc45)c(F)c3n2)CC1` [Compound 38]: 500 to 5000 nM; `N#Cc1cc2c(N3CC4CCC(C3)N4)nc(OC[C@@]34CCCN3C[C@H](F)C4)nc2c(F)c1-c1c(O)cccc1F` [Compound 90]: greater than 5000 nM.
On the same count and under the same terms, next, `CCc1c(F)ccc2cc(O)cc(-c3c(C#N)cc4c(N5CC6CCC(C5)N6)nc(OC[C@@]56CCCN5C[C@H](F)C6)nc4c3F)c12` [Compound 149]: less than 500 nM; `CCc1c(F)ccc2cc(O)cc(-c3c(C#N)cc4c(N5CC6CCC(C5)N6)nc(OC[C@@]56CCCN5C[C@H](F)C6)nc4c3F)c12` [Compound 150]: less than 500 nM; `CCOc1cc2c(N3CC4CCC(C3)N4)nc(OC[C@@]34CCCN3C[C@H](F)C4)nc2c(F)c1-c1cc(O)cc2cccc(CC)c12` [Compound 156]: less than 500 nM.
Same read-out and setting: next, `CCOc1cc2c(N3CC4CCC(C3)N4)nc(OC[C@@]34CCCN3C[C@H](F)C4)nc2c(F)c1-c1cc(O)cc2cccc(CC)c12` [Compound 157]: 500 to 5000 nM; `CCOc1cc2c(N3CC4CCC(C3)N4)nc(OC[C@@]34CCCN3C[C@H](F)C4)nc2c(F)c1-c1cc(O)cc2ccc(F)c(CC)c12` [Compound 158]: less than 500 nM; `CCOc1cc2c(N3CC4CCC(C3)N4)nc(OC[C@@]34CCCN3C[C@H](F)C4)nc2c(F)c1-c1cc(O)cc2ccc(F)c(CC)c12` [Compound 159]: 500 to 5000 nM.
As for `C#Cc1c(F)ccc2cc(O)cc(-c3c(OCC)cc4c(N5CC6CCC(C5)N6)nc(OC[C@@]56CCCN5C[C@H](F)C6)nc4c3F)c12` [Compound 160], the GI50 was less than 500 nM.
For the compound `C#Cc1c(F)ccc2cc(O)cc(-c3c(OCC)cc4c(N5CC6CCC(C5)N6)nc(OC[C@@]56CCCN5C[C@H](F)C6)nc4c3F)c12` [Compound 161], the GI50 is less than 500 nM.
In the case of `C#Cc1c(F)ccc2cc(O)cc(-c3c(OC)cc4c(N5CC6CCC(C5)N6)nc(OC[C@@]56CCCN5C[C@H](F)C6)nc4c3F)c12` [Compound 162], the GI50 was less than 500 nM.
Same read-out and setting: next, `CCc1c(F)ccc2cc(O)cc(-c3c(OC)cc4c(N5CC6CCC(C5)N6)nc(OC[C@@]56CCCN5C[C@H](F)C6)nc4c3F)c12` [Compound 164]: less than 500 nM; `C#Cc1c(F)ccc2cc(O)cc(-c3cc(OC)c4c(N5CC6CCC(C5)N6)nc(OC[C@@]56CCCN5C[C@H](F)C6)nc4c3F)c12` [Compound 167]: less than 500 nM; `C#Cc1c(F)ccc2cc(O)cc(-c3cc(OC(C)C)c4c(N5CC6CCC(C5)N6)nc(OC[C@@]56CCCN5C[C@H](F)C6)nc4c3F)c12` [Compound 169]: less than 500 nM.
On the same count and under the same terms, next, `C#Cc1c(F)ccc2cc(O)cc(-c3ccc4c(N5CC6CCC(C5)N6)nc(OC[C@@]56CCCN5C[C@H](F)C6)nc4c3F)c12` [Compound 170]: less than 500 nM.

For another test, the target named is recombinant human KRAS^G12D protein (Homo sapiens, UniProt P01116, G12D). The experiment in a line: Temperature-dependent Fluorescence (TdF) KRAS G12D protein binding assay. Particulars: 6 μM KRAS^G12D protein, 10 μM compound, Sypro Orange; Kd calculated from the fluorescent shift. As for the experimental part: The Temperature-dependent Fluorescence (TdF) assay was used to analyze binding affinity of compound to recombinant human KRAS^G12D protein. The TdF assay was conducted in the 96-well-based real-time fluorescence plate reader (ABI 7500 or Roche LightCycler 480). Fluorescent dye Sypro Orange (Sigma) was used to monitor the protein folding-unfolding transition. Protein-compound binding was gauged by the shift in the unfolding transition temperature (ΔTm) acquired with and without compound. Each reaction sample consists of 6 μM KRAS^G12D Protein, 10 μM compound, and Sypro Orange dye (in 1% DMSO) in 20 μL reaction buffer (25 mM HEPES pH 7.5, 150 mM NaCl, 10 mM MgCl2). […] Binding affinity (Kd value) was calculated based on the degree of fluorescent shift of the protein with and without compound.
Chain of recombinant human KRAS^G12D protein (P01116 1-188 isoform P01116-2 G12D): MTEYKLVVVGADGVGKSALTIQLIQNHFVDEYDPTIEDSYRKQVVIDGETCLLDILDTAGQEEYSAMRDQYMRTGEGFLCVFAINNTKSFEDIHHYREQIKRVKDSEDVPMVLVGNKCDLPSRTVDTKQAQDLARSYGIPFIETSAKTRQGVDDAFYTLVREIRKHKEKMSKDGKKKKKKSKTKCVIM
Regarding `CCc1cccc2cc(O)cc(-c3c(Cl)cc4c(N5CC6CCC(C5)N6)nc(OC[C@@]56CCCN5C[C@H](F)C6)nc4c3F)c12` (racemic) [Compound 77], the pKd was greater than 6.30.
The same measure, in the same setting: then `Oc1cc(-c2c(Cl)cc3c(N4CC5CCC(C4)N5)nc(OC[C@]45CCCN4C[C@@H](F)C5)nc3c2F)c2c(Cl)cccc2c1` (single isomer, unassigned) [Compound 101], with greater than 6.30.
Turning to `Oc1cc(-c2c(Cl)cc3c(N4CC5CCC(C4)N5)nc(OC[C@]45CCCN4C[C@@H](F)C5)nc3c2F)c2c(Cl)cccc2c1` (single isomer, unassigned) [Compound 102], the pKd is less than 5.30.
Still for that read-out and setting: then `Oc1cc(-c2c(Cl)cc3c(N4CC5CCC(C4)N5)nc(OC[C@@]45CCCN4C[C@H](F)C5)nc3c2F)c2c(Cl)cccc2c1` (single isomer, unassigned) [Compound 103], with greater than 6.30; and `Oc1cc(-c2c(Cl)cc3c(N4CC5CCC(C4)N5)nc(OC[C@@]45CCCN4C[C@H](F)C5)nc3c2F)c2c(Cl)cccc2c1` (single isomer, unassigned) [Compound 104], with less than 5.30.
Still for that read-out and setting: next, `Oc1cc(-c2c(Cl)cc3c(N4CC5CCC(C4)N5)nc(OC[C@]45CCCN4C[C@@H](F)C5)nc3c2F)c2ccccc2c1` (single isomer, unassigned) [Compound 105]: less than 5.30.
Same read-out and setting: then `CN1CCC[C@H]1COc1nc(NC2CNC2)c2cc(Cl)c(-c3cc(O)cc4cccc(Cl)c34)c(F)c2n1` [Compound 15], with less than 5.30; and `Oc1cccc(F)c1-c1c(Cl)cc2c(N3CC4CCC(C3)N4)nc(OCC34CCCN3CCC4)nc2c1F` [Compound 63], with 5.30 to 6.30.
On to `Oc1cc(-c2c(Cl)cc3c(N4CC5CCC(C4)N5)nc(OC[C@@]45CCCN4C[C@H](F)C5)nc3c2F)c2ccccc2c1` [Compound 68], for which the pKd is greater than 6.30.
The same measure, in the same setting: next, `Oc1cc(-c2c(Cl)cc3c(N4CC5CCC(C4)N5)nc(OCC45CCCN4CCC5)nc3c2F)c2c(Cl)c(F)ccc2c1` [Compound 71]: greater than 6.30; `N#Cc1cc2c(N3CC4CCC(C3)N4)nc(OCC34CCCN3CCC4)nc2c(F)c1-c1cc(O)cc2ccccc12` [Compound 73]: greater than 6.30; `CC(C)N1CCC(Oc2nc(N3CC4CCC(C3)N4)c3cc(Cl)c(-c4cc(O)cc5ccccc45)c(F)c3n2)C1` (stereo not shown) [Compound 84]: less than 5.30.
Still for that read-out and setting: next, `N#Cc1cc2c(N3CC4CCC(C3)N4)nc(OC[C@@]34CCCN3C[C@H](F)C4)nc2c(F)c1-c1ccc(F)c2sc(N)nc12` [Compound 112]: greater than 6.30; `Cc1cc(N)nc(-c2c(SC(F)(F)F)cc3c(N4CCNC[C@@H]4C)nc(OC[C@@H]4CCCN4C)nc3c2F)c1C(F)(F)F` [Compound 136]: less than 5.30.
Still for that read-out and setting: next, `COc1nc(N2CC3CCC(C2)N3)c2cc(Cl)c(-c3ccc(F)c4sc(N)nc34)c(F)c2n1` [Compound 141]: 5.30 to 6.30.

The values are drawn from patent US20230242544A1, “QUINAZOLINE COMPOUNDS, PREPARATION METHODS AND USES THEREOF” (INVENTISBIO CO., LTD., priority 2020, published 2023).
